Source: patent US20220062205A1, “TREATMENT OF GASTROINTESTINAL DISORDERS AND SYMPTOMS THEREOF” (Indiana University Research and Technology Corporation, priority 2018, published 2022)

What was measured:
Winnie mice [1] = assay: Immunohistochemistry and histology of distal colon (cross sections and LMMP); assay type: in vivo, mouse
Method: The small molecular APE1/Ref-1 antagonist; APX3330, was administered via IP injections in Winnie mice at a dose of 25 mg/kg (30 G needle, max volume 200 μl) dissolved in Cremphore (2%) (Sigma-Aldrich): Ethanol (2%) in sterile water (96%). Mice received alternating IP injections twice a day with 12-hour intervals, over the course of two weeks during predominate intestinal inflammation. Winnie-sham treated mice received vehicle injections excluding APX3330 drugs. All mice were monitored, weighed and faecal pellets were collected over the course of treatment.
Distal colon tissues were harvested in oxygenated physiological saline, flushed of faecal content and cut along the mesenteric border. Tissues were pinned down with mucosal side upwards in a Slygard-lined petri dish and were briefly fixed with Zamboni's fixative (2% formaldehyde containing 0.2% picric acid) over night at 4° C. Zamboni's fixative was removed by a serial of washes (3×10 minutes) with dimethyl sulfoxide (DMSO) (Sigma-Aldrich, Sydney, Australia) followed by (3×10 minutes) with 1× phosphate buffered solution (PBS). Tissues were processed for cross sections wholemount longitudinal muscle-myenteric preparations (LMMP). For histological staining, β-tubulin III and α-Smooth muscle actin (SMA) labelling distal colon tissues were pinned and fixed as above without stretching and stored in 50:50 optimum cutting temperature (OCT) compound (Tissue Tek, CA, USA) and frozen in liquid nitrogen-cooled isopentane and OCT and stored at −80° C. until cryo-sectioned (20 μm) onto glass slides for immunohistochemistry (IHC). For immunolabeling glial fibrillary acidic protein (GFAP), microtubule associated protein-2 (MAP2), HMGB1 and APE1, the distal colon LMMPs were stretched to maximum capacity without tearing in Slygard-lined petri dishes and were subjected to fixation and washes as above. To expose the myenteric plexus, removal of mucosa, submucosa and circular muscle was performed prior to IHC.
Immunohistochemistry (IHC) was completed. Specimens were subjected to a one hour incubation at room temperature with 10% normalised donkey serum (NDS) (Merck Millipore, Australia) prior to labelling with primary antibodies (Table 2) in distal colon cross sections and LMMPs. Sections and preparation were washed with 1×PBS (3×10 minutes) and then briefly incubated with fluorophore-conjugated secondary antibodies (Table 2). All specimens were stained with 4′,6′-diamindino-2-pheylindole dihydrochloride (DAPI) to identify immunoreactive cells. Tissues were mounted on glass slides with fluorescent mounting medium (DAKO, North, Sydney, NSW, Australia Tissues for histology were cryo-sectioned at 10 μm, cleared and rehydrated in graded ethanol concentration. For standard hematoxylin and eosin stain (H&E) and Alcian blue stain, sections were immersed in histolene (3×4 minutes), 100% ethanol (2 minutes), 95% ethanol (2 minutes), 70% ethanol (2 minutes), rinsed in tap water (30 seconds), then in hematoxylin (Sigma-Aldrich) (1 minute) or Alcian blue (Sigma-Aldrich) (30 minutes), rinsed in tap water, immersed in Scott's tap water (1 minute) and eosin (Sigma-Aldrich) (5 minutes), rinsed in tap water, immersed in 100% ethanol (2×1 minute) and histolene (4 minutes) and finally mounted on glass slides with DPX mountant. A histological grading system evaluated gross morphological damage on constraints inclusive of mucosal flattening (0=normal, 3=severe flattening), manifestations of haemorrhagic sites (0=none, 3=frequent), damage or distortion to circular muscle (0=normal, 3=substantial thickening and disorganization of muscle layer) and loss to goblet cells (0=none, 3=depleted cells). All slides were coded, and analysis was performed blindly.
Confocal microscopy (Nikon Eclipse Ti multichannel confocal laser scanning system, Nikon, Japan) acquired immunolabelled sections. […]

Winnie mice [2] = assay: RNA sequencing of pooled distal colon; assay type: in vivo, mouse; conditions: n=6, relative to control C57BL/6 mice
Method: The small molecular APE1/Ref-1 antagonist; APX3330, was administered via IP injections in Winnie mice at a dose of 25 mg/kg (30 G needle, max volume 200 μl) dissolved in Cremphore (2%) (Sigma-Aldrich): Ethanol (2%) in sterile water (96%). Mice received alternating IP injections twice a day with 12-hour intervals, over the course of two weeks during predominate intestinal inflammation. Winnie-sham treated mice received vehicle injections excluding APX3330 drugs. All mice were monitored, weighed and faecal pellets were collected over the course of treatment. Control C57BL/6, Winnie-sham treated and Winnie-APX3330 fresh colon tissues were collected and snap frozen into liquid nitrogen. Samples were then sent to the Australian Genome Research Facility (AGRF) where next generation sequencing (NGS) was completed. NGS will be carried out by removing 2-3 μg of RNA per sample (≥100 ng/μl). The integrity of the RNA will be assessed by a Bioanalyzer as samples are to have a RNA integrity number (RIN) value of ≥8.0. The RNA samples went through a DNase treatment ready for library preparation. […] Samples underwent quality and adapter trimming, alignment, quantification and normalization. […] Final data obtained from AGRF were analysed and interpreted to determine APE1/Ref-1 associated pathways.

[3] = LMMP distal colon, mean±SEM, n=6
[4] = distal colon cross sections, mean±SEM, n=5

## CCCCCCCCCC(=CC1=C(C)C(=O)C(OC)=C(OC)C1=O)C(=O)O [APX3330]
Winnie mice [1]; Alcian blue, distal colon mucosa, mean±SEM, n=4
  goblet cell density: 46.5±4.3%
Winnie mice [1]; H&E / Alcian blue colon cross sections, mean±SEM, n=5
  histological grading: 4.8±0.7
Winnie mice [1]; LMMP colon, mean±SEM, n=4
  APE1 intensity (immunoreactivity density) in the myenteric ganglia: 6.0±1.4%
Winnie mice [1]; [3]
  expression of Oxo-8dG-IR (oxidative DNA damage) in myenteric ganglia: 2.0±0.9%
  number of myenteric neurons IR for Oxo-8dG: 0.9±0.7
Winnie mice [1]; LMMP, compared to control C57BL/6 and Winnie-sham (P<0.01)
  number of APE1-IR cells: significantly decreased
Winnie mice [1]; colon cross sections of treated Winnie mice
  gross morphology of the colon (H&E stain): attenuate damage to the colon
Winnie mice [1]; distal colon cross sections, circular muscle, mean±SEM, n=5
  size of α-SMA-immunoreactive smooth muscle cells to nuclear size: 75.7±6.4%
Winnie mice [1]; [4]
  number of α-SMA-IR smooth muscle cells within the circular muscle: 45.2±3.1
  β-tubulin (III)-IR nerve fibre density: 13.3±0.8
Winnie mice [1]; myenteric ganglia, LMMP distal colon, mean±SEM, n=7
  proportional number of MAP2-IR myenteric neurons: 31.9±2.2%
Winnie mice [1]; myenteric ganglia, LMMP, mean±SEM, n=4
  number of cells with HMGB1 translocation into the cytosol: 0.9±0.3
Winnie mice [1]; myenteric plexus, LMMP distal colon, mean±SEM, n=4
  GFAP-IR glial cell density relative to ganglion area: 64.2±8.8%
Winnie mice [2]
  down regulation (fold change) of RNA expression of S100a8, Khdc1a, Lrg1, Retnlb, Nos2, Ido1 and REG3B: > 2
